Values quoted from earlier work as cited in patent publication US10136666B2, “Deep eutectic solvents and flavour generation” (NESTEC S.A., priority 2013, dated 2018).

Conditions: from literature values

## NCCC(=O)O [β-alanine]
  amount that would dissolve in 60 g water: about 33 g
